Test results as given in PMC4471902, “Block of NMDA receptor channels by endogenous neurosteroids: implications for the agonist induced conformational states of the channel vestibule” (Scientific Reports, 2015).
Counter-ions that a name gives are not always drawn.

Assay: Steroid concentration in the cytoplasmic membrane (erythrocyte membrane ghosts, HPLC-MS)
Format: physicochemical, rat
Protocol: All animal manipulations were conducted in accordance with the Animal Protection Code of the Czech Republic and corresponding directives of the European Community Council (2010/63/EC). Experiments were approved by the Animal Care and Use Committee of the Institute of Physiology of the Academy of Sciences of the Czech Republic. Blood was collected from one adult Wistar rat, heparinized, and spun down at 1,000 g for 10 min. Cells were washed once with PBS, briefly spun down and the pellet resuspended in a minimum amount of ECS. Cells were counted and 200 μl aliquots (~3*10^9 cells) were taken for the experiment. Cell membranes were prepared by 30 min erythrocyte lysis in distilled water followed by centrifugation at 25,000 g for 10 min and resuspension in 200 μl of ECS. Cell membranes were incubated for 2 min with PA-S solution in ECS at the final volume of 500 μl, followed by a spin down at 20,000 g for 2 min. Supernatants were taken for liquid chromatography-mass spectrometry analysis (HPLC-MS). Solution of PA-S without membranes served as a control. […]
PA-S concentration was assessed in ECS to which steroid was added from its 20 mM stock solution ([PA-S]ECS) and in the supernatant of a solution containing er ythroc yte membranes ([PA-S]EC S+M) (see Methods). The concentration of steroid in the membrane ([PA-S]M) was calculated from the difference of [PA-S] in the control solution ([PA-S] EC S) and that in the supernatant containin g m embranes ([PA-S]EC S+M) accordin g to [PA-S]M = ([PA-S]ECS - [PA-S]EC S+M) · Vsolu tion /Vmembrane (where V denotes volume). Data points were fitted to the linear equation of the following form y = 38.8 * x; The partition coeffici ent for P A-S was calculated […]
7.4) determined using the online program CHEMICALIZE (http://www.chemicalize.org/).
Data points represent the mean of two independent measurements. The values of the partition coefficient (log D) of PA-S in the erythrocyte cytoplasmic membrane was calculated assuming 136 μm2 as the mean surface area of a rat erythroc yte and 4 nm as the mean membrane thickness. […]

## CC(=O)[C@H]1CC[C@H]2[C@@H]3CC[C@@H]4C[C@H](OS(=O)(=O)O)CC[C@]4(C)[C@H]3CC[C@]12C [PA-S, 20-oxo-5β-pregnan-3α-yl sulfate]
Calculated for the PA-S IC50 value of 55.7 µM
  equilibrium surface density S: 4.32 10−9 M m −2
Product of [PA-S]membrane and koff
  flux Jout of steroid from the membrane into the aqueous phase: at least 4.3 μM s^−1 m^−2
Y = slope * x
  slope of linear fit of [PA-S]M versus aqueous concentration: 38.8
